Experimental data from US7375086B2, “Modulators of Nod2 signaling” (The Regents of the University of Michigan, priority 2000, dated 2008).

Key:
Nod2-Fpk3 = experiment: Enforced oligomerization of Fpk3-Nod2 chimeric proteins, NF-κB reporter in HEK293T cells; type: cell-based, human
Protocol: HEK293T cells were transfected with of control plasmid (−) or plasmids producing the indicated Myc-tagged Fpk3Nod2 proteins. Extracts from equal number of cells was immunoprecipitated and immunoblotted with rabbit anti-Myc antibody. […] 2×10^5 HEK293T cells were transfected with 1 ng of the indicated plasmids in the presence of pBVIx-luc and pEF-BOS-β-gal. 8 hr post-transfection, cells were treated with 500 nM AP1510 (black bars) or left untreated (white bars). 24 hr post-transfection, the κB-dependent transcription was determined as described below. Values represent mean ±SD of triplicate cultures.
In the case of Nod1, its oligomerization appears to promote proximity of RICK and NF-κB activation. To test a similar role for Nod2, plasmids were constructed to express chimeric proteins in which wt or Nod2 mutants were fused to three tandem repeated dimerization domains of Fpk (Fpk3), which can be oligomerized by the cell-permeable ligand AP1510 (MacCorkle et al., Proc. Nat. Acad. Sci. U. S. A. 95: 3655-3660 [1998]). […] Because wt Nod2 alone induces NF-KB activation, we expressed suboptimal amounts of the chimeric Fpk3-Nod2 constructs into HEK293T cells. […] Similarly, NF-κB activation induced by a Nod2 P-loop mutant lacking the LRRs (K305RALRR), which have reduced ability to induce NF-κB activation, was enhanced by enforced oligomerization (FIG. 7C). […]

NF-κB [1] = experiment: NF-κB reporter assay in parental Rat1 fibroblasts; type: cell-based, rat
Protocol: (§1) Induction of NF-κB activation was determined in triplicate cultures of HEK293T cells transfected with 30 ng of Nod2 plasmid (open bars) or stimulated with 10 ng/ml of TNFα for 4 h (closed bars) and 70 ng of I-κBα S32A/S36A, IKKα K44A, IKKβ K44A, RICK (406-540) or RIP (558-671) expression plasmid in the presence of pBVIx-Luc and pEF-BOS-β-gal. Results are presented as a percent of values obtained with Nod2 and control plasmid. In the experiment shown, Nod2 and TNFα induced 58±8-fold and 14±1-fold activation of NF-κB, respectively. Values represent mean ±SD of triplicate cultures. […] Induction of NF-κB activation was determined from triplicate cultures of I×10^5 HEK293T cells co-transfected with the indicated plasmids and pBVIx-Luc in the presence of control plasmid pEF-BOS-β-gal. Values represent mean ±SD of triplicate cultures.
NF-κB activation assays. NF-κB activation assays were performed as described (Inohara et al., [1999] supra, Inohara et al., [2000], supra). […] 24 hr post-transfection, cell extracts were prepared and its relative luciferase activity was measured as described (Inohara et al., [1999] supra, Inohara et al., [2000], supra). […]

NF-κB [2] = experiment: NF-κB luciferase reporter assay in HEK293T cells transfected with control plasmid; type: cell-based, human
Protocol: as §1, with “pEF-BOS-β-gal. […]” for “pEF-BOS-β-gal. Values represent mean ±SD of triplicate cultures.”
8 hr post-transfection, cells were treated with 10 μg/ml of each pathogen product, lipoteichoic acid (LTA) or peptidoglycan (PGN) from Staphylococcus aureus, lipopolysaccharide (LPS) from Escherichia coli 055:B5, mannan from Candida albicans 20A, synthetic soluble bacterial lipoprotein (SBLP) or left untreated (Control). 24 hr post-transfection, κB-dependent transcription was determined by luciferase activity relative and values normalized to β-galactosidase in triplicate cultures. […] Twenty-four hr post-transfection, κB-dependent transcription was determined as described above. […]

TLR2 = molecular target: T1, TLR2 (Homo sapiens, UniProt O60603); experiment: NF-κB reporter assay in HEK293 cells stably transfected with TLR2; type: cell-based; details: MDP 100 ng/ml, sBLP 1000 ng/ml
T1 construct: expressed in transfected cells
T1 sequence (O60603 21-784, species assumed): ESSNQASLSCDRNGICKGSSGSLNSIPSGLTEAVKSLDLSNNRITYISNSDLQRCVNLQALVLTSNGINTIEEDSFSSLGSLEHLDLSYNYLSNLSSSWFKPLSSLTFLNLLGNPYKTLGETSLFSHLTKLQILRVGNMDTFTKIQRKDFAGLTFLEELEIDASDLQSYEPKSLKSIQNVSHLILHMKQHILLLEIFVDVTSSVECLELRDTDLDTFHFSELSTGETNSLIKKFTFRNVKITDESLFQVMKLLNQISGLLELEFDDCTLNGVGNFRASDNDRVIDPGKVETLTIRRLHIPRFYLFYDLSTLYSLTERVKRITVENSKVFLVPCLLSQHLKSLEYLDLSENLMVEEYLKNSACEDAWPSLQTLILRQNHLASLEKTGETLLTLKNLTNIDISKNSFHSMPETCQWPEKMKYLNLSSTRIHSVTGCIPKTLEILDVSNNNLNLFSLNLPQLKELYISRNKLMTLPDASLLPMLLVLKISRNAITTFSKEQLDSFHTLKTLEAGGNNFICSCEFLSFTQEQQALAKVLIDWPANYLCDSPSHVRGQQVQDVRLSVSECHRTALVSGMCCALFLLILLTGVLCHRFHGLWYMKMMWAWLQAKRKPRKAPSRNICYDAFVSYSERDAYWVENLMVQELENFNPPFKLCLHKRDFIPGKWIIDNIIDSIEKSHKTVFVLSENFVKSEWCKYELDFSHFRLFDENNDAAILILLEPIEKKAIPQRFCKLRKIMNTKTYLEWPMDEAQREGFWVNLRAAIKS
Protocol: Molecules with two copies (2mer) or four copies (4mer) of GlcNAc-MurNAc with attached L-Ala-D-isoGln and their counterparts lacking dipeptide (2mer-aa, 4mer-aa) were synthesized as described (Inamura et al., Tetrahedron Lett. 42:7613 [2001]). Eight hours post-transfection, the indicated amount of each compound was added to the cells and the ability of each compound to activate NF-κB was determined as above. The ability of MDP (100 ng/ml) and sBLP (1000 ng/ml) to activate NF-κB was determined by transfection of 0.3 ng pcDNA3-Nod2 (Nod2) or control plasmid (−) into HEK293 cells or in HEK293 cells stably transfected with TLR2 (TLR2) or with control plasmid (−) and reporter pBxIV-luc and pEF-BOS-β-gal plasmids. Values represent the mean of normalized data ±S.D. of triplicate cultures.

NF-κB [3] = experiment: NF-κB binding activity by EMSA in nuclear extracts of PBMNC; type: cell-based, human; details: PBMNC nuclear extracts, EMSA
Protocol: FIGS. 20C and D show PBMNC analyzed for expression of IL-1β (C) and A1 (D) transcripts by quantitative RT-PCR.
Genotyping was performed using a ddNTP primer extension system. Nuclear extracts from LPS-stimulated cells were pre-incubated with antibody specific for p50 subunit of NF-κB to monitor the size of the NF-κB-DNA complex. cDNA was amplified with specific primers for human IL-1β, glyceraldehyde-3-phosphate-dehydrogenase (GAPDH) as described (5) and A1 (5′-[…]-3′ (SEQ ID NO: 53) and 5′-[…]-3′ (SEQ ID NO:54)). The levels of IL-1β and A1 transcripts normalized to that of GAPDH were expressed relative to those in untreated cells that were considered as baseline. Specificity of the desired PCR products was determined by melting curve analysis. Histograms represent the mean ±S.D. of triplicate analyses.
The NOD2 variants associated with Crohn's disease, R702W, G908R and L1007fsinsC, occur on the same haplotype background, which includes the common P268S polymorphism (Hugot et al., Nature 411:599 [2001]; Ogura et al., Nature 411:603 [2001]). To compare the ability of normal and mutant NOD2 proteins to induce NF-κB activity in response to MDP, the NOD2 proteins were expressed in cells and evaluated in a functional assay. […] The role of NOD2 in the recognition of MDP by primary cells from normal and Crohn's disease patients was next determined. A panel of healthy and Crohn's disease individuals were genotyped for the disease-associated NOD2 alleles and two individuals (one without clinical evidence of disease and one individual with Crohn's disease) who were homozygous for the loss-of-function L1007fsinsC mutation were identified (FIG. 20A). The identification of apparently healthy individuals homozygous for L1007fsinsC is expected in that the penetrance of the L1007fsinsC mutation is not complete (Hugot et al., supra; Ogura et al., supra; Hampe et al., Lancet 357:1925 [2001]; Ahmad et al., Gastroenterology 122:854 [2002]). Peripheral blood mononuclear cells (PBMNC) that are known to express NOD2 were isolated, incubated with MDP or LPS and NF-κB activation was assessed in nuclear extracts by an electrophoretic mobility shift assay (EMSA).

Nod2 = molecular target: T2, Nod2 (Homo sapiens, UniProt Q9HC29, R703H); experiment: NF-κB reporter assay in HEK293T/HEK293 cells expressing Nod2; type: cell-based; details: 100 ng/ml (FIG. 18C)
T2 construct: ligated to generate an unique cDNA containing the entire open reading frame of Nod2; expressed in transfected cells; host or cells: HEK293T
T2 sequence (Q9HC29 whole entry R703H): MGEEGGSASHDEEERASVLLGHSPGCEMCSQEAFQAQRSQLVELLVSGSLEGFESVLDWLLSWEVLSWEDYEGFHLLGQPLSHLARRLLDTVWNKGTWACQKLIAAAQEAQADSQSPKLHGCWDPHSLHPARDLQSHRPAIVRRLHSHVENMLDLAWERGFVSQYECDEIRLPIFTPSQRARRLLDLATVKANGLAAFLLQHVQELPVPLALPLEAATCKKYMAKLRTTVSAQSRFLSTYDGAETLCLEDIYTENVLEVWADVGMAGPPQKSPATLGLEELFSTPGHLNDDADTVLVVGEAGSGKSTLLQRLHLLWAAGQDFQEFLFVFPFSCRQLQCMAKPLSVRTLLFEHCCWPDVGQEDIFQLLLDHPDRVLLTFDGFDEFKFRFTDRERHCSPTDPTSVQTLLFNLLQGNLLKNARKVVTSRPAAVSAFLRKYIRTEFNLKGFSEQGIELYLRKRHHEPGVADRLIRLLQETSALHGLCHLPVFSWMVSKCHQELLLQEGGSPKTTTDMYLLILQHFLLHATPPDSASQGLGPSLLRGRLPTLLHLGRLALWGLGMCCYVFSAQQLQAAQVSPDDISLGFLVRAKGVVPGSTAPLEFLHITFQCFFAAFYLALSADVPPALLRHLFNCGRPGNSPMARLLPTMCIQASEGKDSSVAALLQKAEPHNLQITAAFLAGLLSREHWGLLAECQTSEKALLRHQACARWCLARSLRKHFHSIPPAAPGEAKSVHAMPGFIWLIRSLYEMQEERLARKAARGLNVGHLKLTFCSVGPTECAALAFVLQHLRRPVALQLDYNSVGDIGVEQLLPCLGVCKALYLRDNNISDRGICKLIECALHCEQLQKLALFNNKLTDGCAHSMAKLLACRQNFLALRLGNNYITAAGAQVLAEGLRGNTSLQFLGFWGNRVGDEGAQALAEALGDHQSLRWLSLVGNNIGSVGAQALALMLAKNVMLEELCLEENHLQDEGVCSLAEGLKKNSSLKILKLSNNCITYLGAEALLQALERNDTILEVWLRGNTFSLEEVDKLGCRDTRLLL

Molecule: CCC(C)(C)C(=O)C(=O)N1CCCC[C@H]1C(=O)O[C@H](CCc1ccc(OC)c(OC)c1)c1cccc(OCC(=O)NCCNC(=O)COc2cccc([C@@H](CCc3ccc(OC)c(OC)c3)OC(=O)[C@@H]3CCCCN3C(=O)C(=O)C(C)(C)CC)c2)c1 [AP1510]
- NF-κB activation by Nod2-Fpk3 upon ligand (Nod2-Fpk3; 500 nM AP1510, suboptimal amounts (1 ng) of plasmid): induced NF-KB activation in a ligand-dependent manner
- NF-κB activation by Nod2-Fpk3 construct lacking the LRRs (Nod2-Fpk3; 500 nM AP1510 or untreated): induced NF-κB activation in the absence and presence of AP1510

Molecule: TNFα
- NF-κB activity in parental Rat1 cells (NF-κB [1]): induced NF-κB activity
- activation of NF-κB (NF-κB [2]; HEK293T cells stimulated with 10 ng/ml of TNFα for 4 h): 14±1 fold

Molecule: PaM3CysSerLyS4 [SBLP]
- induction of NF-κB reporter gene activity (NF-κB [2]; HEK293T cells transfected with control plasmid, 10 μg/ml of each pathogen product): No significant induction of reporter gene activity
- TLR2-mediated cellular response (NF-κB) (TLR2): mediated a cellular response

Molecule: Cc1ccc(S(=O)(=O)/C=C/C#N)cc1 [Bay11-7082]
- inhibition of the DNA binding complex induced by MDP (NF-κB [3]): inhibited

Molecule: CC(=O)NC1C(O)OC(CO)C(O)C1OC(C)C(=O)NC(C)C(=O)NC(CCC(=O)O)C(N)=O [MurNAc-L-Ala-L-isoGln]
- ability to stimulate NOD2 (stereoselectivity) (Nod2): eliminated the ability of MDP to stimulate NOD2
